The test system of assay [1] is EcoRI and Taq1 digested SV40 DNA. Put plainly: DNA crosslinking, EcoRI/Taq I digested SV40 DNA, alkaline agarose gel. Type of assay: binding. To be noted: 0.5 and 1 μM, 37° C., 17 hours. The method, then: Isolated SV40 DNA (Gibco BRL) was digested with EcoRI (3 units/μg DNA) (Promega #R6011) at 37° C. for two hours, and concentrated through a spin column (Microcon 50, Amicon, Inc.). The EcoRI digested SV40 DNA was then digested with Taq I (3 units/μg DNA) (Promega #6151) at 65° C. for an additional 2 hours. After digestion, DNA was extracted once with phenol/chloroform/isoamyl alcohol (25:24:1), and once with chloroform/isoamyl alcohol (24:1). The digested DNA was then labelled on the 5' end with ^32 P using the DuPont/NEN T4 polynucleotide kinase 5' end labelling system and […]. Labelled DNA was loaded onto a pre-equilibrated Sephadex 25 spin purification column (Quick-spin, Boehringer-Mannheim Biochemicals) and eluted into 400 μl TE (20 mM Tris HCl, 1 mM EDTA). Eluted DNA was ethanol precipitated overnight at -20° C. and spun in an Eppendorf microcentrifuge for 1 hour at 4° C., 14,000 rpm.
Precipitated DNA was suspended in TE (20 mM Tris HCl, pH 8, 1 mM EDTA) at approximately 0.1 μg/μl and incubated at 37° C. for 17 hours in a 50 μl volume with 0, 0.5, 1.0, 1.5 or 2 μM compound 21. Following drug treatment, DNA was again ethanol precipitated, spun down, dried briefly and suspended in 20 μl water. […]

Assay [2] deals with SV40 DNA (Form I, negatively supercoiled). Put plainly: SV40 DNA unwinding / mobility by agarose gel electrophoresis. The note with it: for effect on SV40 DNA conformation (in words): agarose gel electrophoresis, 37° C. The format is binding. The source says:
The model used in this study, negatively supercoiled, closed circular, plasmid SV40 DNA (Form I), undergoes several stages of drug-induced unwinding that are monitored by agarose electrophoresis.
Central to the understanding of compound 21 action was the ability to assess whether the drug was bound irreversibly (presumably covalently) or reversibly. The system used to extract the reversibly bound drug went through several phases of development. The classic phenol/chloroform mixture cannot completely extract all of the drug. However, the phenol/chloroform mixture effectively extracts the drug in the presence of at least 0.1M NaCl.
Three different systems, A, B and D were used to probe the mode of interaction of compound 21 with DNA.
System A: Compound 21 and DNA in TE buffer (10 mM Tris-HCl, pH 7.5 and 1 mM EDTA) without phenol/chloroform.
System B: Compound 21 and DNA in TE buffer with 0.5M NaCl without phenol/chloroform extraction.
System D: Compound 21 and DNA in TE buffer with 0.5M NaCl followed by phenol/chloroform extraction.
In general, SV40 DNA (90% Form I, negatively supercoiled, and 10% Form II, nicked, Gibco BRL) was incubated with graded concentrations of compound 21 at 37° C. for the indicated time periods in the appropriate system. The isolated DNA was then separated by agarose gel electrophoresis (1% Seakem agarose in 1× TAE buffer) in TAE buffer with 80 volts for 2 hours. Gels were stained with ethidium bromide (0.5 μg/ml) for 15 minutes, washed and then recorded with polaroid film while being irradiated with a UV transilluminator (λ=254 nm).

This note sets out measurements from US5561042A, “Diamine platinum naphthalimide complexes as antitumor agents” (Cancer Therapy and Research Center, priority 1995, dated 1996).

Entries after “also recorded” stand apart in the source; their conditions may differ.

Take “8-(3'-nitro-1',8'-naphthalimide)-3,6-diazaoctylamine dichloroplatinum(II) [Compound 21]”: the “formation of DNA cross links (in words)” value in assay [1] is “formation of higher molecular weight DNA, around 4.6 and 5.8 Kb; also recorded: cross-linked DNA of 4.6-5.8 Kb”. Further, the “effect on SV40 DNA conformation (in words)” value was “potent distortion of DNA conformation; also recorded: gradually converts the negatively supercoiled SV40 DNA (Form I) to relaxed Form I” in assay [2] and “observed instantly; also recorded: without incubation, the effect of compound 21 on DNA can be completely reversed using System D; also recorded: more of the mobility shift is retained, with an actual increase in drug effect at the full 8 hours; also recorded: no change in DNA mobility shift is observed even under system D at 8 hours; also recorded: can be returned to normal mobility after treatment with thiourea; also recorded: reversal of compound 21 on SV40 DNA by removal of compound 21 with phenol/chloroform extraction in 0.5M NaCl; also recorded: no change in mobility after phenol/chloroform, 0.5M NaCl extraction” in assay [2] (listed as compound 21). Also, the “decrease of the concentration at which form I and II comigrate” value in assay [2] (from time zero to 8 hours) came to 2 fold. In assay [2] (time course studies), the “time to plateau of irreversible effect on DNA conformation” value was 6 to 8 h.
